Values joined by “and” are separate entries in the source; they are usually repeats but may differ in a detail not shown here. Equal entries are not always repeated.
Columns and labels:
Assay type in all cases: in vivo, rat
[1] = test system: male Sprague-Dawley rats; test: Hind limb weight bearing (incapacitance meter, % WL) in thermal burn pain model; settings: rat burn injury 55° C. 24 s, 30 mg/kg PO, 30 mg/kg
Procedure: (§1) Test Animals: Each experiment used male Sprague-Dawley rats weighing between 190-260 g at the time of thermal burn injury. The rats were housed two per cage, and were allowed to acclimate to their environment for at least six days before testing began. The rats had free access to food and water at all times, except during testing and prior to oral (PO) administration of a test compound, when food was removed about 16 hours before dosing. The rats were divided into treatment groups, and one of the following compounds was administered to each group at the dose and by the route of administration indicated in Tables 5.2A to 5.2C, 5.3A and 5.3B, and 5.4A and 5.4B: ketorolac (Sigma-Aldrich, St. Louis, Mo.), AMG 517 (selective TRPV1 antagonist described in Em. Doherty et al., “Novel vanilloid receptor-1 antagonists:2. Structure-activity relationships of 4-oxopyrimidines leading to the selection of a clinical candidate,” J Med Chem 50:3515-3527 (2007).) (Purdue Pharma L. P., Cranbury, N.J.), indomethacin (Alexis Biochemicals, Farmingdale, N.Y.), gabapentin (Bosche Scientific, New Brunswick, N.J.), or (S)-3-chloro-5-(1,2-dihydroxyethyl)-N-(5-(trifluoromethyl)pyridin-2-yl)-5′,6′-dihydro-[2,4′-bipyridine]-1′(2′H)-carboxamide (Compound 1). The control groups were administered the vehicle for the compound of formula (I). The volume of administration for PO treatment was 5 ml/kg, and was the same for all treatment groups. Volume of administration for intraperitoneal (i.p.) drug administration was 2 ml/kg.
(§2) To assess the actions of a compound of formula (I) for the treatment or prevention of burn pain, a model of thermal burn pain was used. A thermal burn injury was induced under isofluorane/O2 inhalation anesthesia. To assess mechanical hyperalgesia and weight bearing, a thermal injury was produced by immersing the left hind paw into water maintained at 55° C. for 24 seconds. The left hind paw of non-injured control animals was immersed in 22° C. water for 24 seconds. To assess thermal hyperalgesia, a thermal injury was produced by immersing the left hindpaw into water maintained at 50° C. for 48 seconds; the left hind-paw of non-injured control animals was immersed in 22° C. water for 48 seconds. The animals were assessed for response to noxious mechanical stimuli by determining PWT for mechanical hyperalgesia, weight bearing difference between the injured or non-injured side, or response to noxious thermal stimuli by determining PWL for thermal hyperalgesia, all as described below, prior to drug administration (baseline), then again at 1, 3 and 5 hours after induction of burn injury.
A commercially available incapacitance meter was used to determine the weight distribution on the two hind paws of the animal (Linton Incapacitance Tester (Linton Instrumentation, Norfolk, UK)). The weight bearing difference (WBD) between the injured and non-injured hindpaw was measured. The animal was placed in the testing chamber that allows the animal to stand normally, distributing its body weight on the hind limbs for the test. Each hind paw was positioned on a separate pressure sensitive pad, which independently measures the pressure applied by each limb. The device continuously collects data after either a force threshold has been exceeded, or the investigator depresses the start pad. Rats were allowed to acclimate when placed on the apparatus, and when they were stationary, the force exerted was then continuously monitored for 3 s. The endpoint was the amount of pressure applied to each limb over time. Three readings were taken for each rat at each time point, and the average used for data analysis. WBD was expressed as “% WL”, i.e. the percentage of weight borne on the burn-injured left hind paw, using the following formula: […]
where WLP is the weight on the left hind paw and WRP is the weight on the right (untreated) hind paw. The 50% value of % WL corresponds to an equal weight distribution across both hind paws. […]

[2] = test system: male Sprague-Dawley rats; test: Paw pressure assay, mechanical hyperalgesia (PWT) in thermal burn pain model; settings: rat burn injury 55° C. 24 s, 30 mg/kg PO
Procedure: as §1, §2
The paw pressure assay was used to assess mechanical hyperalgesia. For this assay, hind paw withdrawal thresholds (PWT) to a noxious mechanical stimulus were determined using an analgesimeter (Model 7200, commercially available from Ugo Basile of Italy) as described in C. Stein, “Unilateral Inflammation of the Hindpaw in Rats as a Model of Prolonged Noxious Stimulation: Alterations in Behavior and Nociceptive Thresholds,” Pharmacol. Biochem. and Behavior 31:451-455 (1988). The rat's paw was placed on a small platform, and weight was applied in a graded manner up to a maximum of 250 grams. The endpoint was taken as the weight at which the paw was completely withdrawn. PWT was determined once for each rat at each time point, wherein the affected (ipsilateral; same side as the injury) rear paw was tested. […] All drug treatment groups were compared to the vehicle control group (i.e. injured, administered only the vehicle).

[3] = test system: male Sprague-Dawley rats; test: Plantar test, thermal hyperalgesia (PWL) in thermal burn pain model; settings: rat burn injury 50° C. 48 s, 30 mg/kg PO
Procedure: as §1, §2
The plantar test was used to assess thermal hyperalgesia. For this test, hind paw withdrawal latencies (PWL) to a noxious thermal stimulus were determined using a plantar test apparatus (commercially available from Ugo Basile of Italy) following the technique described by K. Hargreaves et al., “A New and Sensitive Method for Measuring Thermal Nociception in Cutaneous Hyperalgesia,” Pain 32(1):77-88 (1988). The maximum exposure time was set at 32 seconds to avoid tissue damage and any directed paw withdrawal from the heat source is taken as the end point. Three latencies were determined at each time point and averaged.

[4] = baseline (prior to drug administration)

`COc1ccc2c(c1)c(CC(=O)O)c(C)n2C(=O)c1ccc(Cl)cc1` [Indomethacin, indomethacin] was tested, and the “% WL (mean ± S.E.M.), percentage of weight borne on the burn-injured left hind paw” value (“% WL (mean ± S.E.M.), percentage” for short) ([1]; 3 h after administration) was 42.6 ± 2.14% and 46.8 ± 2.17%, the “% WL (mean ± S.E.M.), percentage” value ([1]; 5 h after administration) was 43.7 ± 2.38% and 48.2 ± 2.54% and the “% WL (mean ± S.E.M.), percentage” value [1, 4] was 49.1 ± 0.53% and 50.4 ± 0.54%. The “% Decrease from Baseline (mean ± S.E.M.) of Paw Withdrawal Threshold” value (“% Decrease from Baseline” for short) ([2]; 1 h after administration) was 51 ± 2.6 %, the “% Decrease from Baseline” value ([2]; 3 h after administration) was 45 ± 5.8 % and the “% Decrease from Baseline” value ([2]; 5 h after administration) was 58 ± 3.6%. For the same compound, the “Paw Withdrawal Threshold (g) (mean ± S.E.M.)” value ([2]; 5 h after administration) was 103 ± 10.2 g, the “Paw Withdrawal Threshold (g) (mean ± S.E.M.)” value [2, 4] was 240 ± 7.5 g and the “% Change from Baseline (mean ± S.E.M.) of Paw Withdrawal Latency” value (“% Change from Baseline” for short) ([3]; 1 h after administration) was −41.5 ± 10.71%. For the same compound, the “Paw Withdrawal Latency (sec) (mean ± S.E.M.)” value (shortened to “Paw Withdrawal Latency (sec)”) ([3]; 1 h after administration) was 8.3 ± 0.91 s, the “% Change from Baseline” value ([3]; 3 h after administration) was −26.1 ± 13.18% and the “Paw Withdrawal Latency (sec)” value ([3]; 3 h after administration) was 11.2 ± 0.87 s. For the same compound, the “% Change from Baseline” value ([3]; 5 h after administration) was −25.5 ± 13.63%, the “Paw Withdrawal Latency (sec)” value ([3]; 5 h after administration) was 11.4 ± 0.51 s and the “Paw Withdrawal Latency (sec)” value [3, 4] was 14.3 ± 1.26 s.

— patent US20180303809A1, “TREATMENT OF BURN PAIN BY TRPV1 MODULATORS” (Purdue Pharma L.P., priority 2013, published 2018)
